In patent US10392368B2, “Pyrazolo and triazolo bicyclic compounds as JAK kinase inhibitors” (THERAVANCE BIOPHARMA R&D IP, LLC, priority 2017, dated 2019):
Where two headings read alike, the source gives them in different places.

Experiments:
[1] = test system: IL-2 stimulated pSTAT5 in Tall-1 T cells; assay: Cellular JAK3 potency assay: inhibition of IL-2 stimulated pSTAT5 in Tall-1 T cells; format: cell-based, human; settings: for IC50: Homo sapiens, read-out: Tall-1 (pIC50) (converted)
Description: The potency of test compounds for inhibition of interleukin-2 (IL-2) stimulated STAT5 phosphorylation was measured in the Tall-1 human T cell line (DSMZ) using AlphaLisa. Because IL-2 signals through JAK3, this assay provides a measure of JAK3 cellular potency.
Compounds were serially diluted in DMSO and dispensed acoustically to empty wells. Assay media (phenol red-free DMEM (Life Technologies) supplemented with 10% FBS (ATCC)) was dispensed (4 μL/well) and plates shaken at 900 rpm for 10 mins. Cells were seeded at 45,000 cells/well in assay media (4 μL/well), and incubated at 37° C., 5% CO2 for 1 hour, followed by the addition of IL-2 (R&D Systems; final concentration 300 ng/ml) in pre-warmed assay media (4 μL) for 30 minutes. After cytokine stimulation, cells were lysed with 6 ul of 3× AlphaLisa Lysis Buffer (PerkinElmer) containing 1× PhosStop and Complete tablets (Roche). The lysate was shaken at 900 rpm for 10 minutes at room temperature (RT). Phosphorylated STAT5 was measured via the pSTAT5 AlphaLisa kit (PerkinElmer). Freshly prepared acceptor bead mixture was dispensed onto lysate (5 μL) under green filtered <100 lux light. Plates were shaken at 900 rpm for 2 mins, briefly spun down, and incubated for 2 hrs at RT in the dark. Donor beads were dispensed (5 μL) under green filtered <100 lux light. Plates were shaken at 900 rpm for 2 minutes, briefly spun down, and incubated overnight at RT in the dark.
To determine the inhibitory potency of test compounds in response to IL-2, the average emission intensity of beads bound to pSTAT5 was measured in a human T cell line. IC50 values were determined from analysis of the inhibition curves of signal intensity versus compound concentration. Data are expressed as pIC50 (negative decadic logarithm IC50) values (mean±standard deviation).

JAK1 = target: T1, JAK1 (Homo sapiens, UniProt P23458); assay: Biochemical JAK1 kinase assay (LanthaScreen); settings: for Ki: read-out: JAK 1 (pKi) (converted)
T1 construct: GST; purchased Life Technologies
Description: (§1) A panel of four LanthaScreen JAK biochemical assays (JAK1, 2, 3 and Tyk2) were carried in a common kinase reaction buffer (50 mM HEPES, pH 7.5, 0.01% Brij-35, 10 mM MgCl2, and 1 mM EGTA). Recombinant GST-tagged JAK enzymes and a GFP-tagged STAT1 peptide substrate were obtained from Life Technologies.
(§2) Serially or discretely diluted compounds were pre-incubated with each of the four JAK enzymes and the substrate in white 384-well microplates (Corning) at ambient temperature for 1 h. ATP was subsequently added to initiate the kinase reactions in 10 μL total volume, with 1% DMSO. […] Kinase reactions were allowed to proceed for 1 hour at ambient temperature before a 10 μL preparation of EDTA (10 mM final concentration) and Tb-anti-pSTAT1 (pTyr701) antibody (Life Technologies, 2 nM final concentration) in TR-FRET dilution buffer (Life Technologies) was added. The plates were allowed to incubate at ambient temperature for 1 h before being read on the EnVision reader (Perkin Elmer). Emission ratio signals (520 nm/495 nm) were recorded and utilized to calculate the percent inhibition values based on DMSO and background controls.
(§3) For dose-response analysis, percent inhibition data were plotted vs. compound concentrations, and IC50 values were determined from a 4-parameter robust fit model with the Prism software (GraphPad Software). Results were expressed as pIC50 (negative logarithm of IC50) and subsequently converted to pKi (negative logarithm of dissociation constant, Ki) using the Cheng-Prusoff equation.

JAK3 = target: T2, JAK3 (Homo sapiens, UniProt P52333); assay: Biochemical JAK3 kinase assay (LanthaScreen); design: GST; purchased Life Technologies; settings: for Ki: read-out: JAK 3 (pKi) (converted)
T2 sequence (P52333 1-1124): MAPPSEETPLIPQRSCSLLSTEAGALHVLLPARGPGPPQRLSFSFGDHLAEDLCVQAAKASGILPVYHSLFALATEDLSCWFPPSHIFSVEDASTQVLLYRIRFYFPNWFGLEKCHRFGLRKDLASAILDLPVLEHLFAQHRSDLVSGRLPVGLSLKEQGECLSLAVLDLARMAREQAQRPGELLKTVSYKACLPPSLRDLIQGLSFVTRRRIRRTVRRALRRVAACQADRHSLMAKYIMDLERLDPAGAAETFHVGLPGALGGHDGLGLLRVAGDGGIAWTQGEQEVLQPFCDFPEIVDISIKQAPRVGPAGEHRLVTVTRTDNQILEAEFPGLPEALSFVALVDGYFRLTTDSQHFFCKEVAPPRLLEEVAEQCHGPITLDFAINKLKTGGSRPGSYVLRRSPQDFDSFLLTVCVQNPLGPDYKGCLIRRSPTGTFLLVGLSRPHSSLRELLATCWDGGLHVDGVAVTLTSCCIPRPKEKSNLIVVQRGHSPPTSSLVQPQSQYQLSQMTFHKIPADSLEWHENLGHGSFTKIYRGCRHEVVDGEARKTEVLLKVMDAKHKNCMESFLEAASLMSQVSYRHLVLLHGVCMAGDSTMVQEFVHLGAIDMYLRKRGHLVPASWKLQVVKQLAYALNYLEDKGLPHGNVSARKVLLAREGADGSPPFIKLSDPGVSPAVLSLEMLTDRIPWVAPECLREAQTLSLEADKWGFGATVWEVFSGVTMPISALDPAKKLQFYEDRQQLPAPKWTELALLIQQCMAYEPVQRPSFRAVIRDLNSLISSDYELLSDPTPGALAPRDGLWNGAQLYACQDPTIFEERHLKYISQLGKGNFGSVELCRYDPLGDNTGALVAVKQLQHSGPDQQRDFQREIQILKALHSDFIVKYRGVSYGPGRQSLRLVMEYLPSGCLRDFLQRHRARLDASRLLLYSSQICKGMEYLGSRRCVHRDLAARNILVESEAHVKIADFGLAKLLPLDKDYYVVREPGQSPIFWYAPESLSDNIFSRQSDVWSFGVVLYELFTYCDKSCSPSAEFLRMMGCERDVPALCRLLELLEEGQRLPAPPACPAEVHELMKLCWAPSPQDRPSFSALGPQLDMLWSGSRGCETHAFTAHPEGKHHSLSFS
Description: as §1, §2, §3

[2] = TALL-1, IL-2 stimulated pSTAT5, Tall-1 T cells
[3] = selectivity JAK3 over JAK1, difference of pKi
[4] = selectivity: difference of pKi JAK3 and pKi JAK1
[5] = IL-2 stimulated pSTAT5 in Tall-1 T cells
[6] = IL-2 stimulated pSTAT5, Tall-1 T cells

T1 sequence (P23458 whole entry): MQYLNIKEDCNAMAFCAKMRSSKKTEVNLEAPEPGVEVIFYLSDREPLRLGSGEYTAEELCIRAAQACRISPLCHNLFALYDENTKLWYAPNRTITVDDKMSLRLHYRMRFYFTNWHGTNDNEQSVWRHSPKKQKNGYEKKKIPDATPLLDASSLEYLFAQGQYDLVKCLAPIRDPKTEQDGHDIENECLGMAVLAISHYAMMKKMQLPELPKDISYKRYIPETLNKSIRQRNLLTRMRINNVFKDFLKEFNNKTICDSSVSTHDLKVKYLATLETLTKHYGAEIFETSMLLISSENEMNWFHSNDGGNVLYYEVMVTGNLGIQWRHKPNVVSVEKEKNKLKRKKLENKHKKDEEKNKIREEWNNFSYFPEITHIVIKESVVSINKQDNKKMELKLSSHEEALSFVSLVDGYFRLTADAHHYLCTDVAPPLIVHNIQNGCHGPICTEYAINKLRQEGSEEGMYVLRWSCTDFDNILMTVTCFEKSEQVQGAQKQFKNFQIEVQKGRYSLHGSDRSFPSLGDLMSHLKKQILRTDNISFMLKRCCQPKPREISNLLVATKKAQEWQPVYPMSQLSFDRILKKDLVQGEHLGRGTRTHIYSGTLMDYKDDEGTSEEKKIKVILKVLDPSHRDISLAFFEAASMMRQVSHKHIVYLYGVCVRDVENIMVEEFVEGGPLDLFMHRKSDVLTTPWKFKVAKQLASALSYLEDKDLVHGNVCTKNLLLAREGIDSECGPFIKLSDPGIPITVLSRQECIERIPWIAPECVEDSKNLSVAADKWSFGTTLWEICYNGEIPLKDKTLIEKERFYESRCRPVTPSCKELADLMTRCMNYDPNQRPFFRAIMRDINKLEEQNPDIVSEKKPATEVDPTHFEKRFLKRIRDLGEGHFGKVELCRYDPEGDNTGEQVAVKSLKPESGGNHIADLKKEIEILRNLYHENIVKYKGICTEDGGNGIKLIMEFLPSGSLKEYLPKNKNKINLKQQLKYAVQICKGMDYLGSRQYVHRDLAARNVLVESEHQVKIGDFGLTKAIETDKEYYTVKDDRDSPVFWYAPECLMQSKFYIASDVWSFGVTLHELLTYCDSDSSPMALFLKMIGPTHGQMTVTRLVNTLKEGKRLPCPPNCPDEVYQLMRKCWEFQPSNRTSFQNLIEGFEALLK

Compound	IC50 [1, 2] [nM]	Ki (JAK1) [nM]	Ki (JAK3) [nM]	JAK3 (pKi)-JAK1 (pKi) (JAK3; [3])	IC50 ([1]; TALL-1, IL-2 stimulated pSTAT5 in Tall-1 T cells) [nM]	JAK3 (pKi)-JAK1 (pKi) (JAK3; [4])	Tall-1 (pIC50) [1, 5]	JAK 1 (pKi) (JAK1)	JAK 3 (pKi) (JAK3)	Tall-1 (pIC50) [1, 6]
C=CC(=O)N1CCC(C)(Oc2cc(-c3ccc(O)c(F)c3)cc3[nH]ncc23)CC1 [Compound 6-7]	< 31.6	> 100	0.1 to 1	A (a value of 3 or above)						
C=CC(=O)N1CC(C)(COc2cc(-c3ccc(O)c(F)c3)cc3[nH]ncc23)C1 [Compound 3-12]		> 100	0.1 to 1		31.6 to 200	B (a value of 2.3 to 3)				
C=CC(=O)N1CC(COc2cc(-c3ccc(O)c(F)c3)cc3[nH]nc(C)c23)C1 [Compound 18-7]	< 31.6	10 to 100	0.1 to 1	C (a value of 1.8 to 2.3)						
C=CC(=O)N1CC(C(C)(C)Oc2cc(-c3ccc(O)cc3)cc3[nH]ncc23)C1 [Compound 3-25]						B (a value of 2.3 to 3)	B (a pIC50 value between 6.7 (included) and 7.5 (IC50 between 200 nM and 32 nM))	E (a pKi value of 7 or below (Ki of 100 nM or above))	C (a pKi value between 8 and 9 (Ki between 10 nM and 1 nM))	
C=CC(=O)N1CC[C@H](COc2cc(-c3ccc(O)cc3)nc3[nH]ncc23)C1 [Compound 2-6]						A (a value of 3 or above)	C (a pIC50 value between 6 and 6.7 (IC50 between 1 μM and 200 nM))	E (a pKi value of 7 or below (Ki of 100 nM or above))	A (a pKi value≥10 (Ki≤0.1 nM))	
CN(C)C/C=C/C(=O)N1CCC(Oc2cc(-c3ccc(O)c(Cl)c3)cc3[nH]ncc23)CC1 [Compound 6-19]	31.6 to 200	10 to 100	0.1 to 1	B (a value of 2.3 to 3)						
CN(C)C/C=C/C(=O)N1CC[C@H](COc2cc(-c3ccc(O)cc3)cc3[nH]ncc23)C1 [Compound 2-1]						B (a value of 2.3 to 3)	C (a pIC50 value between 6 and 6.7 (IC50 between 1 μM and 200 nM))	D (a pKi value between 7 and 8 (Ki between 100 nM and 10 nM))	A (a pKi value≥10 (Ki≤0.1 nM))	
C=CC(=O)N1CC(OCc2cc(-c3ccc(O)cc3)nc3[nH]ncc23)C1 [Compound 16-4]				A (a value of 3 or above)				E (a pKi value of 7 or below (Ki of 100 nM or above))	B (a pKi value between 9 and 10 (Ki between 1 nM and 0.1 nM))	B (a pIC50 value between 6.7 (included) and 7.5 (IC50 between 200 nM and 32 nM))
CN(C)CC=CC(=O)N1CCCC(Oc2nc(-c3ccc(O)c(F)c3)cc3[nH]ncc23)C1 (stereo not drawn) [Compound 8-9]				B (a value of 2.3 to 3)				E (a pKi value of 7 or below (Ki of 100 nM or above))	B (a pKi value between 9 and 10 (Ki between 1 nM and 0.1 nM))	C (a pIC50 value between 6 and 6.7 (IC50 between 1 μM and 200 nM))
